Where a name gives a salt, the structure may show the parent alone. Read-outs that look alike come from different tables or passages of the source.

Data set [1] is described as follows: Acute toxicity in mice (LD50). As to conditions: mouse, in vivo, mice, death rate 7 days after administration. The data set is classed as in vivo. The method, then:
(§1) Female Albino Swiss mice [Crl: CD-1 (ICR) BR] with a body weight of 20-30 g and male Sprague Dawley rats [Crl: CD° BR] with a body weight of 200-300 g, from the Charles River Farm, Italy, were used for the trials. The animals were housed with free access to food and water and kept on a forced light-darkness cycle at 22°-24° C. until the day of the trials.
(§2) The acute toxicity was evaluated in female Albino Swiss mice after intraperitoneal or oral administrations. Four logarithmic scaled doses of the compounds were dissolved or suspended in 0.5% aqueous Methocel and administered at a volume of 10 ml/kg to groups of 4 mice/dose. The death rate was recorded 7 days after the administration.
(§3) The LD50 values and the relevant confidence limits were calculated according to the method of Weil (Biometrics, 8, 249, 1952).

The subject of the next data set is Female Albino Swiss mice. Put plainly: Acute toxicity in mice (LD50). The following applies: in words; LD50/IC50 compared with Flavoxate. The data set is classed as in vivo. The protocol: as §1, §2, §3
Data set [2] deals with rat bladder (K^+ -induced contractions). Put plainly: Inhibition of K^+ -induced rat bladder contractions. The arrangement: species or system rat (male Sprague Dawley). As to conditions: for IC50: 0.5 h, KCl 80 mM, 30 min after drug, isolated rat bladder; for activity of N-oxide compounds: in words, based on the Table. The protocol: Female Albino Swiss mice [Crl: CD-1 (ICR) BR] with a body weight of 20-30 g and male Sprague Dawley rats [Crl: CD° BR] with a body weight of 200-300 g, from the Charles River Farm, Italy, were used for the trials. The animals were housed with free access to food and water and kept on a forced light-darkness cycle at 22°-24° C. until the day of the trials. Male rats were killed by a blow on their heads and their lower abdomens were opened along the midlines. Their urinary bladders were removed by a transverse dissection above the trigone and cut into two fragments (20-30 mm long, 1-2 mm wide). Each fragment was suspended in an isolated organ bath containing 10 ml of a normal Tyrode solution (composition in mM: NaCl 137, KCl 2.68, MgCl2 1.11, CaCl2 1.8, NaH2 PO4 0.41, NaHCO3 11.9, glucose 5.55) and connected, under a steady 1 g load, to an isometric transducer (DY-1, Basile). The solution was gassed with a mixture of 95% O2 and 5% CO2 and heated at 37° C. After a 60 minute equilibration the tension responses to a single KCl dose (Bath concentration=80 mM) inducing phasic and tonic contractions were measured under isometric conditions at 30 minute intervals. After recording one or more reproducible responses, a solution of the test drug was added to the bath (final concentration from 10^-4 to 10^-9 M) and 30 minutes later a new contraction was induced. The experimental groups were made up of at least 2 preparations from different animals for each drug concentration tested. The IC50 values of the inhibition of the agonist-induced contractions were evaluated by linear regression analysis.

A short description of data set [3]: Stability at 37° C. and physiological pH (phosphate buffer, pH=7.4). The data set is classed as physicochemical. As to conditions: pH 7.4 phosphate buffer, read-out: Stability at pH 7.4, % Unchanged after 3 h. The source says:
The stability of the other compounds of the invention was not investigated as they are known to be less subject to degradation than the esters.

Setting [4] is: ip, i.p., read-out: Mice LD50 i.p.
Setting [5] is: po, p.o., read-out: Mice LD50 p.o.
The mark [6] stands for this setting: phasic contraction, read-out: IC50, inhibition of K^+ -induced rat bladder contractions, Phasic.
Where [7] appears, read: tonic contraction, read-out: IC50, inhibition of K^+ -induced rat bladder contractions, Tonic.

With `COc1ccc(C(C#N)(CCCN(C)CCN(C)C(=O)c2cccc3c(=O)c(C)c(-c4ccccc4)oc23)C(C)C)cc1OC.Cl.O` (centres unmarked) [Example 14, 8-{2-[4-Cyano-4-(3,4-dimethoxyphenyl)-N,5-dimethylhexylamino]-N-methylethylcarbamoyl}-3-methyl-4-oxo-2-phenyl-4H-1-benzopyran hydrochloride hydrate], the 50% lethal dose (LD50) (in general, the dose at which mortality reaches 50%) at 168 h in data set [1] (setting [4]) is 159 mg/kg; in data set [1] (setting [5]) it was 346 mg/kg. Also, in the data set on Female Albino Swiss mice, the “relative therapeutic index (LD50/IC50) versus Flavoxate” value is reported as “considerably safer than Flavoxate”. Further, the IC50 in data set [2] (setting [6]) and in data set [2] (setting [7]) was 0.1 µM throughout.

For `COc1ccc(CC2c3cc(OC)c(OC)cc3CCN2CCCOC(=O)c2cccc3c(=O)c(C)c(-c4ccccc4)oc23)cc1OC` (centres unmarked) [Example 7, 8-{3-[1-(3,4-Dimethoxybenzyl)-6,7-dimethoxy-2H-1,2,3,4-tetrahydro-2-isoquinolinyl]propoxycarbonyl}-3-methyl-4-oxo-2-phenyl-4H-1-benzopyran hydrochloride], the remaining at 3 h in data set [3] turned out to be 99%. The LD50 at 168 h is > 1000 mg/kg in data set [1] (setting [4]) and > 3000 mg/kg in data set [1] (setting [5]). Besides, the results for the IC50 in data set [2] (setting [6]) and in data set [2] (setting [7]) were 1.4 µM and 0.9 µM, respectively.

In the case of `COc1ccc(C(C#N)(CCCN(C)CCCOC(=O)c2cccc3c(=O)c(C)c(-c4ccccc4)oc23)C(C)C)cc1OC.Cl` (centres unmarked) [Example 4, 8-{3-[4-Cyano-4-(3,4-dimethoxyphenyl)-N,5-dimethylhexylamino]propoxycarbonyl}-3-methyl-4-oxo-2-phenyl-4H-1-benzopyran hydrochloride], in data set [3], the remaining at 3 h is 100%. The 50% lethal dose (LD50) at 168 h was > 1000 mg/kg in data set [1] (setting [4]) and > 3000 mg/kg in data set [1] (setting [5]). Moreover, the IC50 (in general, the concentration that gives 50% inhibition) in data set [2] (setting [6]) stood at 0.5 µM; in data set [2] (setting [7]), 1.3 µM.

On to `COc1ccc(C(C#N)(CCCN(C)CC(=O)c2cccc3c(=O)c(C)c(-c4ccccc4)oc23)C(C)C)cc1OC.Cl.O` (centres unmarked) [Example 1, 8-{2-[4-Cyano-4-(3,4-dimethoxyphenyl)-5,N-dimethylhexylamino]-1-oxoethyl}-3-methyl-4-oxo-2-phenyl-4H-1-benzopyran hydrochloride hydrate], for which the results for the 50% lethal dose (LD50) at 168 h in data set [1] (setting [4]) and in data set [1] (setting [5]) were 475 mg/kg and > 3000 mg/kg, respectively. For the same compound, the IC50 was 10 µM in data set [2] (setting [6]) and > 10 µM in data set [2] (setting [7]).

Consider `COc1ccc(C(C#N)(CCCN(C)CCOCc2cccc3c(=O)c(C)c(-c4ccccc4)oc23)C(C)C)cc1OC.Cl.O` (centres unmarked) [Example 18, 8-{2-[4-Cyano-4-(3,4-dimethoxyphenyl)-5,N-dimethylhexylamino]ethoxymethyl}-3-methyl-4-oxo-2-phenyl-4H-1-benzopyran hydrochloride hydrate], for which the results for the LD50 at 168 h in data set [1] (setting [4]) and in data set [1] (setting [5]) were 334 mg/kg and 974 mg/kg, respectively. The half-inhibitory concentration (IC50) in data set [2] (setting [6]) was determined as 0.3 µM; in data set [2] (setting [7]) it was 0.4 µM.

`COc1ccc(C(C#N)(CCCN(C)CCSCc2cccc3c(=O)c(C)c(-c4ccccc4)oc23)C(C)C)cc1OC.Cl` (centres unmarked) [Example 19, 8-{2-[4-Cyano-4-(3,4-dimethoxyphenyl)-5,N-dimethylhexylamino]ethylthiomethyl}-3-methyl-4-oxo-2-phenyl-4H-1-benzopyran hydrochloride]: the LD50 at 168 h is > 1000 mg/kg in data set [1] (setting [4]) and > 3000 mg/kg in data set [1] (setting [5]). In addition, the values for the IC50 in data set [2] (setting [6]) and in data set [2] (setting [7]) were 0.5 µM and 1.3 µM, respectively.

For `COc1ccc(CCN(C)CCCNC(=O)c2cccc3c(=O)c(C)c(-c4ccccc4)oc23)cc1OC` [Example 12, 8-{3-[2-(3,4-Dimethoxyphenyl)-N-methylethylamino]propylcarbamoyl}-3-methyl-4-oxo-2-phenyl-4H -1-benzopyran hydrochloride 0.3-hydrate], the figures for the LD50 at 168 h in data set [1] (setting [4]) and in data set [1] (setting [5]) were 129 mg/kg and 716 mg/kg, respectively. Also, the concentration for half-maximal inhibition (IC50) worked out at 2.2 µM in data set [2] (setting [6]) and 1.4 µM in data set [2] (setting [7]).

For the compound `COc1ccc(C(C#N)(CCCN(C)CC(=O)N(C)Cc2cccc3c(=O)c(C)c(-c4ccccc4)oc23)C(C)C)cc1OC.Cl.O` (centres unmarked) [Example 17, 8-{2-[4-Cyano-4-(3,4-dimethoxyphenyl)-N,5-dimethylhexylamino]-N-methyl-1-oxo-ethylaminomethyl}-3-methyl-4-oxo-2-phenyl-4H-1-benzopyran hydrochloride hydrate], the LD50 at 168 h in data set [1] (setting [4]) is 334 mg/kg; in data set [1] (setting [5]), 1710 mg/kg. The results for the IC50 in data set [2] (setting [6]) and in data set [2] (setting [7]) were 0.2 µM and 0.4 µM, respectively.

Consider `COc1ccc(C(C#N)(CCCN(C)CCNC(=O)c2cccc3c(=O)c(C)c(-c4ccccc4)oc23)C(C)C)cc1OC` (centres unmarked) [Example 13, 8-{2-[4-Cyano-4-(3,4-dimethoxyphenyl)-N,5-dimethylhexylamino]ethylcarbamoyl}-3-methyl-4-oxo-2-phenyl-4H-1-benzopyran hydrochloride hemihydrate], for which the median lethal dose (LD50) at 168 h in data set [1] (setting [4]) worked out at 422 mg/kg. The IC50 turned out to be 0.3 µM in data set [2] (setting [6]) and 0.1 µM in data set [2] (setting [7]).

In the case of `COc1ccc(C(C#N)(CCCN(C)CC(=O)NCc2cccc3c(=O)c(C)c(-c4ccccc4)oc23)C(C)C)cc1OC.Cl.O.O` (centres unmarked) [Example 16, 8-{2-[4-Cyano-4-(3,4-dimethoxyphenyl)-N,5-dimethylhexylamino]-1-oxoethylaminomethyl}-3-methyl-4-oxo-2-phenyl-4H -1-benzopyran hydrochloride dihydrate], the LD50 at 168 h in data set [1] (setting [4]) came to 440 mg/kg; in data set [1] (setting [5]), 1280 mg/kg. The half-maximal inhibitory concentration (IC50) in data set [2] (setting [6]) is 0.5 µM; in data set [2] (setting [7]), 0.9 µM.

For the compound `COc1ccc(C(C#N)(CCCN(C)CCS(=O)(=O)Cc2cccc3c(=O)c(C)c(-c4ccccc4)oc23)C(C)C)cc1OC` (centres unmarked) [Example 20, 8-{2-[4-Cyano-4-(3,4-dimethoxyphenyl)-5,N-dimethylhexylamino]ethylsulphonylmethyl}-3-methyl-4-oxo-2-phenyl-4H-1-benzopyran hydrochloride hemihydrate], the LD50 at 168 h in data set [1] (setting [4]) was > 1000 mg/kg; in data set [1] (setting [5]), > 3000 mg/kg. Besides, the IC50 in data set [2] (setting [6]) and in data set [2] (setting [7]) was 0.5 µM in each case.

As to `COc1ccc(CC[N+](C)([O-])CCCOC(=O)c2cccc3c(=O)c(C)c(-c4ccccc4)oc23)cc1OC` (centres unmarked) [Example 3, 8-{3-[2-(3,4-Dimethoxyphenyl)-N-methyl-N-oxoethylamino]-propoxycarbonyl}-3-methyl-4-oxo-2-phenyl-4H-1-benzopyran hydrochloride], the LD50 at 168 h in data set [1] (setting [4]) was > 1000 mg/kg; in data set [1] (setting [5]), > 3000 mg/kg. Further, the IC50 in data set [2] (setting [6]) and in data set [2] (setting [7]) was > 10 µM in each case. In data set [2], the “activity of N-oxide compounds” value is listed as “do not appear to be very active”.

For the compound `COc1ccc(C(C#N)(CCC[N+](C)([O-])CCCOC(=O)c2cccc3c(=O)c(C)c(-c4ccccc4)oc23)C(C)C)cc1OC` (centres unmarked) [Example 5, 8-{3-[4-Cyano-4-(3,4-dimethoxyphenyl)-N,5-dimethyl-N-oxohexylamino]propoxycarbonyl}-3-methyl-4-oxo-2-phenyl-4H-1-benzopyran hydrochloride x 0.25 H2 O], the median lethal dose (LD50) at 168 h in data set [1] (setting [4]) is > 1000 mg/kg; in data set [1] (setting [5]) it was > 3000 mg/kg. Besides, the 50% inhibitory concentration (IC50) in data set [2] (setting [6]) came to 10 µM; in data set [2] (setting [7]) it was 2.2 µM. Besides, the “activity of N-oxide compounds” value in data set [2] was “do not appear to be very active”.

As for `COc1ccc(CCN(C)CCCOC(=O)c2cccc3c(=O)c(C)c(-c4ccccc4)oc23)cc1OC.Cl` [Example 2, 8-{3-[2-(3,4-Dimethoxyphenyl)-N-methylethylamino]propoxycarbonyl}-3-methyl-4-oxo-2-phenyl-4H-1-benzopyran hydrochloride], the LD50 at 168 h in data set [1] (setting [4]) was 773 mg/kg; in data set [1] (setting [5]) it was 2260 mg/kg. In addition, the IC50 in data set [2] (setting [6]) was found to be 1 µM; in data set [2] (setting [7]), 0.5 µM.

As for `CCN(CCCOC(=O)c1cccc2c(=O)c(C)c(-c3ccccc3)oc12)C(C)Cc1ccc(OC)cc1.Cl` (centres unmarked) [Example 6, 8-{3-[N-Ethyl-3-(4-methoxyphenyl)-2-propylamino]propoxycarbonyl}-3-methyl-4-oxo-2-phenyl-4H-1-benzopyran hydrochloride], in data set [3], the remaining at 3 h came to 99%. The LD50 at 168 h is > 1000 mg/kg in data set [1] (setting [4]) and > 3000 mg/kg in data set [1] (setting [5]). Also, the IC50 was found to be 1.7 µM in data set [2] (setting [6]) and 4.2 µM in data set [2] (setting [7]).
